Reference: PMC5413018, “Neuropeptide S (NPS) variants modify the signaling and risk effects of NPS Receptor 1 (NPSR1) variants in asthma” (PLoS ONE, 2017)
Positions count from the first letter of the chain named. Residues, ends and D or L forms follow the SMILES beside them.

Assays:
NPSR1-Asn(107) = biological target: T1, NPSR1-Asn(107) (Homo sapiens, UniProt Q6W5P4); assay: CRE-dependent luciferase activity, NPSR1-Asn(107); format: cell-based; details: HEK293 transiently transfected with NPSR1-Asn(107); NPS 10 pM-100 μM, 3 h; three experiments in triplicates; mean ± SE; Val(6) vs Leu(6) p = 0.03; read-out: pEC50 for CRE-dependent luciferase activity (converted)
T1 construct: expressed in transfected cells; host or cells: HEK293
T1 sequence (Q6W5P4 1-371): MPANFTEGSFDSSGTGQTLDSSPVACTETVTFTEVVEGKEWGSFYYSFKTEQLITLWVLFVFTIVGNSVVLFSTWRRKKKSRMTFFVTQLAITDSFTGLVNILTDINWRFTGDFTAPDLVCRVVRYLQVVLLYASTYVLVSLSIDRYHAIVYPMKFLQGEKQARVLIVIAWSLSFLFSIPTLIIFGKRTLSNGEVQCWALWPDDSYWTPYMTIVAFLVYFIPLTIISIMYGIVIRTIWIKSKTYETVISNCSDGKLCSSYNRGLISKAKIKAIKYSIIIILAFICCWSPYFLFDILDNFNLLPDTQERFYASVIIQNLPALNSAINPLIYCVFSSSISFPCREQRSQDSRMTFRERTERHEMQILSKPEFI
Source text: (§1) To compare the bioactivities of the two NPS variants, we measured the dose-responses of NPSR1-Ile(107) and NPSR1-Asn(107) coding variants to either wildtype NPS-Val(6) or alternative NPS-Leu(6) in a luciferase assay dependent on the activation of a cAMP-response element (CRE). This assay was used since elevation of the intracellular cAMP levels activates cAMP response element binding protein (CREB) via […]. Activated CREB binds to CRE and induces the expression of downstream target genes of the cAMP/PKA signaling pathway. Because of the low endogenous expression levels of NPSR1 in majority of the available cell lines, we first used HEK293 cells with forced NPSR1 expression as a model for ligand-receptor interactions. […] Firefly and Renilla luciferase activity was measured 3 h after stimulation with serial dilutions of NPS (10 pM-100 μM). […]
(§2) Human embryonic kidney cells (HEK293) were cultured in MEM+GlutaMAX-1 medium (Gibco/Invitrogen) supplemented with 10% fetal calf serum (FCS) (Biosera), 1% sodium pyruvate, 1% non-essential amino acids and 1% penicillin/streptomycin (Gibco/Invitrogen). […] The HEK293 cell line was chosen for ligand-receptor studies because it is a well-established model for addressing numerous questions in basic biology and is easy to transfect and amenable of stringent quantitative assessment. […]

NPSR1-Ile(107) = biological target: T2, NPSR1-Ile(107) (Homo sapiens, UniProt Q6W5P4, N107I); assay: CRE-dependent luciferase activity, NPSR1-Ile(107); format: cell-based; design: expressed in transfected cells; host or cells: HEK293; details: HEK293 transiently transfected with NPSR1-Ile(107); NPS 10 pM-100 μM, 3 h; three experiments in triplicates; mean ± SE; Val(6) vs Leu(6) p = 0.004; read-out: pEC50 for CRE-dependent luciferase activity (converted)
T2 sequence (Q6W5P4 1-371 N107I): T1 sequence (Q6W5P4 1-371) with N107I
Source text: as §1, §2

| SMILES | EC50 (NPSR1-Asn(107)) | EC50 (NPSR1-Ile(107)) |
| --- | --- | --- |
| CSCC[C@H](NC(=O)CNC(=O)[C@@H](NC(=O)CNC(=O)[C@H](CC(C)C)NC(=O)CNC(=O)[C@H](CC(N)=O)NC(=O)[C@H](CCCNC(=N)N)NC(=O)[C@H](Cc1ccccc1)NC(=O)[C@@H](N)CO)[C@@H](C)O)C(=O)N[C@@H](CCCCN)C(=O)N[C@@H](CCCCN)C(=O)N[C@H](C(=O)N[C@@H](CO)C(=O)N[C@@H](Cc1ccccc1)C(=O)N[C@@H](CCC(N)=O)C(=O)N[C@@H](CCCNC(=N)N)C(=O)N[C@@H](C)C(=O)N[C@@H](CCCCN)C(=O)N[C@@H](CO)C(=O)O)[C@@H](C)O [NPS-Leu(6)] (H-SFRNGLGTGMKKTSFQRAKS-OH) | 12600 nM | 200 nM |
| CSCC[C@H](NC(=O)CNC(=O)[C@@H](NC(=O)CNC(=O)[C@@H](NC(=O)CNC(=O)[C@H](CC(N)=O)NC(=O)[C@H](CCCNC(=N)N)NC(=O)[C@H](Cc1ccccc1)NC(=O)[C@@H](N)CO)C(C)C)[C@@H](C)O)C(=O)N[C@@H](CCCCN)C(=O)N[C@@H](CCCCN)C(=O)N[C@H](C(=O)N[C@@H](CO)C(=O)N[C@@H](Cc1ccccc1)C(=O)N[C@@H](CCC(N)=O)C(=O)N[C@@H](CCCNC(=N)N)C(=O)N[C@@H](C)C(=O)N[C@@H](CCCCN)C(=O)N[C@@H](CO)C(=O)O)[C@@H](C)O [NPS-Val(6)] (H-SFRNGVGTGMKKTSFQRAKS-OH) | 794 nM | 3.98 nM |
